In US8592370B2, “Combination of insulin with triazine derivatives” (Poxel S.A.S., priority 2008, dated 2013):

Columns and labels:
[1] = tested on: hyperglycemic and hypoinsulinemic Type 1 rat models (Streptozotocin); assay: Fasting plasma glucose in STZ Type 1 rat model, insulin pellets with or without EMD; assay type: in vivo
Procedure: (§1) The study was performed in hyperglycemic and hypoinsulinemic Type 1 rat models obtained by injection of high dose of Streptozotocin (STZ). Male Wistar rats (Charles River) were treated with STZ at 62.5 mg/kg IP. Rats were screened for baseline glucose levels three days after STZ injection. The animals with glucose levels below 35-40 mmol/l were excluded from this study. After selection, pellets of insulin were subcutaneously implanted (1+½ implants) at day 3. The release rate for each implant was 2 U per 24 h. In these experimental conditions each rat was infused with 3 U per 24 h of insulin for 40 days approximately (Limplant LINSHIN CANADA). 5,6-dihydro-4-dimethylamino-2-imino-6-methyl-1,3,5-triazine was orally administered at two doses, 75 and 150 mg/kg b.i.d., 10 days after induction of diabetes. Further experimental details are known to the skilled artisan, e.g. by the disclosure of WO 2003/092726, and can be easily modified as a matter of routine.

[2] = tested on: hyperglycemic and hypoinsulinemic Type 1 rat models (Streptozotocin); assay: Oral glucose tolerance test (OGTT), plasma glucose after 36 days of treatment; assay type: in vivo; settings: insulin alone
Procedure: as §1
The determination how quickly administered glucose is cleared form the blood was conducted by means of a glucose tolerance test. The glucose was orally given; so the common test was technically an oral glucose tolerance test (OGTT), which is well-known to the skilled artisan. The laboratory animal was fasting for 18 hours before it was administered a glucose solution. Blood was drawn at intervals (cf. Table 3) for measurement of glucose (blood sugar), and additionally insulin levels were measured to detect the degree of IR or deficiency, respectively. For diabetes screening, the most important sample is the 2 hour sample, whose blood sugar value is enhanced at mammals with diminished insulin secretion or IR.

## CC1NC(=N)N=C(N(C)C)N1 (stereo not shown) [EMD, 5,6-dihydro-4-dimethylamino-2-imino-6-methyl-1,3,5-triazine]
[1]; EMD 75 mg/kg b.i.d. oral + insulin pellets 3 U per 24 h, day 36
  Fasting plasma glucose: 18.86 ± 2.77 mmol/L
[1]; EMD 150 mg/kg b.i.d. oral + insulin pellets 3 U per 24 h, day 36
  Fasting plasma glucose: 14.85 ± 2.03 mmol/L

## control + insulin: subcutaneously implanted insulin pellets releasing 3 U per 24 h (Limplant LINSHIN CANADA); insulin alone group
[1]; insulin pellets 3 U per 24 h alone, day 0 (before treatment)
  Fasting plasma glucose: 33.20 mmol/L
[1]; insulin pellets 3 U per 24 h alone, day 8
  Fasting plasma glucose: 17.22 mmol/L
[1]; insulin pellets 3 U per 24 h alone, day 15
  Fasting plasma glucose: 11.25 mmol/L
[1]; insulin pellets 3 U per 24 h alone, day 22
  Fasting plasma glucose: 16.66 mmol/L
[1]; insulin pellets 3 U per 24 h alone, day 36
  Fasting plasma glucose: 21.46 mmol/L
[1]; insulin pellets 3 U per 24 h alone, day 36, listed as insulin pellets
  Fasting plasma glucose: 21.46 ± 3.1 mmol/L
[2]; 0 min
  OGTT plasma glucose: 21.46 mmol/L
[2]; 10 min
  OGTT plasma glucose: 22.73 mmol/L
[2]; 20 min
  OGTT plasma glucose: 26.98 mmol/L
[2]; 30 min
  OGTT plasma glucose: 27.83 mmol/L
[2]; 45 min
  OGTT plasma glucose: 28.04 mmol/L
[2]; 60 min
  OGTT plasma glucose: 25.59 mmol/L
[2]; 90 min
  OGTT plasma glucose: 20.35 mmol/L
[2]; 120 min
  OGTT plasma glucose: 16.91 mmol/L
